Where two headings read alike, the source gives them in different places.
Key:
[1] = system: adult S. mansoni worms; test: Treatment of adult S. mansoni worms in culture with inhibitors (attachment to tissue culture substrate, morphology; single 10 μM and dose-response EC50); format: cell-based, Schistosoma mansoni; settings: for EC50: Schistosoma mansoni; for effect on adult worms: benzoxazole propiolamide series, treated 72 hours, monitored until D5
Method: Adult S. mansoni (NMRI strain) (6–7 weeks post-infection) worms were harvested from infected female Swiss Webster mice by hepatic portal vein perfusion using 37°C DMEM (Mediatech, Manassas, VA), 8% Horse Serum, and heparin.
Roughly 5 adult worm pairs were placed in 3mL Basch medium in a 12-well culture vessel, and incubated at 37°C, 5% CO2 for the length of the experiment. Compound was administered at D0, D1, and D2, media and drug refreshed every 24 hr. Worms were then allowed to remain in culture until D5, where a final assessment of worm attachment to tissue culture substate was made by light microscopy. Observations on movement and morphology were also recorded. A negative control (0.1% DMSO) and positive control (PZQ; 10 μM in 0.1% DMSO) were included in each experiment, and each experiment was repeated in triplicate for validation. For compounds that caused complete detachment in replicate experiments, the treatment was expanded to three concentrations (10 μM, 5 μM, and 1 μM) following the same treatment schedule and controls as detailed above. […] Each titration experiment was performed in triplicate according to the treatment regimen described above, using DMSO and PZQ as appropriate controls. Morphologies and motility were assessed by light microscopy, and dose-response curves were calculated using the primary readout of parasite attachment to tissue culture substrate in GraphPad Prism. […]
[…] Values were calculated using Prism.

[2] = biological target: S. mansoni p97 (Smp_018240) (Schistosoma mansoni, UniProt G4M0P7); test: biochemical; settings: for Fold Selectivity: H. sapiens vs S. mansoni p97 IC50; for Fold Selectivity / IC50: Suppl. Fig. 9C; for IC50: Sm p97, 100 μM – 1 nM, read-out: S. mansoni IC50; for activity on the enzyme: schistosome p97
Method: E. coli BL21 (DE3) containing the desired plasmid were grown in LB medium containing […] kanamycin while shaking at 37 °C to an OD600 of 0.6–0.8. The temperature was reduced to 18°C and 0.8 mM isopropyl-beta-D-thiogalactopyranoside (IPTG) was added. The bacterial culture was harvested 16hr later by centrifugation. The resulting pellet was suspended in 60 mL lysis buffer/2L bacterial culture [20 mM Tris (pH 7.4), 300 mM NaCl, 5 mM MgCl2, 20 mM imidazole, 1% Triton X-100, 1 mg/mL lysozyme, 10% glycerol, 3 mM β-mercaptoethanol, 0.2 mM PMSF, and protease inhibitor tablet (Roche)]. […] The lysate was centrifuged at 40,000 × rpm for 35 min at 4°C. The resulting supernatant was incubated with Ni-NTA beads equilibrated to lysis buffer for 1 hr at 4°C before being loaded onto a gravity column. The bead bed was washed with wash buffer [20 mM Tris (pH 7.4), 500 mM NaCl, 5 mM MgCl2, 40 mM imidazole, 0.05% Triton X-100, 10% glycerol, 3 mM β-mercaptoethanol, 0.2 mM PMSF, 0.001 mg/mL Aprotinin, and 0.002 mg/mL Leupeptin], then eluted in the same buffer with 250 mM imidazole in wash buffer. Fractions containing p97 were concentrated using Pierce Protein Concentrators (100k MWCO) and loaded onto a gel-filtration column (Superdex 200PG) and eluted using SEC buffer [20 mM Tris (pH 7.4), 180 mM NaCl, 5 mM MgCl2, and 10% glycerol] at 0.5 mL/min flow rate on a BioRad NGC Chromatography System. Fractions corresponding to an apparent molecular weight of 500 – 600 kDa were collected and analyzed by 4–20% SDS/PAGE to evaluate purity. Concentration was determined using a BSA standard. Fractions containing purified protein were aliquoted, snap frozen in liquid nitrogen, and stored at −80 °C until use.
For manual ATP consumption assays, 1 μM p97 was incubated with 1% DMSO or inhibitor (1% DMSO final) in assay buffer [50 mM Tris (pH 7.5), 20 mM MgCl2, 1 mM EDTA, 0.5 mM tris(2-carboxyethyl)phosphine (TCEP)] for 5 minutes prior to the addition of 20 μM ATP in a 384-well plate for a total reaction volume of 10 μL, and a final concentration of 500nM enzyme and 10 μM ATP. The reaction was allowed to proceed for 50 minutes at room temperature before adding equivalent volume of Kinase-Glo Plus reagent (Promega), and a further incubation of 10 minutes in the dark.
IC50 values were calculated using GraphPad Prism.

[3] = biological target: T1, H. sapiens p97 (P55072) (Homo sapiens, UniProt P55072); test: p97 ATPase activity, ATP consumption assay (Kinase-Glo), IC50 / counter screen; format: biochemical; settings: Hs p97; 100 μM – 1 nM; Suppl. Fig. 9C
T1 construct: 6xHis (C); made in house; host or cells: E. coli BL21 (DE3)

[4] = system: HepG2 cells; test: HepG2 cytotoxicity assay (Cell Titer Glo 2.0); format: cell-based, human; settings: Homo sapiens
Method: HepG2 cells (ATCC) were plated at 2500 cells/well in 50 μL/well, dispersing cells using a 25g needle to break up clumps prior to plating. Plates were incubated for 24hr at 37C, 5% CO2. Following 24hr, 50 μL media containing 0.6% DMSO was added to a set of wells on one plate. The plate and Cell Titer Glo 2.0 reagent were brought to RT. A T=0 read was taken by adding 40 μL reagent/well, rocking the plate at 100 rpm for 2 min, then reading luminescence ~10 min later. […] 50 μL 2x concentrated compound was added to wells containing cells in 50 μL 24 hr after plating. Concentrations were tested in triplicate at following values: 30, 10, 3.3, 1.1, 0.37, 0.12, and 0.04 μM. Plates were incubated for 72 hr at 37C, 5% CO2. Following equilibration to room temperature, 40 μL undiluted reagent was added to each well, the plate rocked at 100 rpm for 2 min and then read for luminescent signal ~10 min later.
Values are plotted in excel and the 50% point determined by interpolation. Values were revisualized in Prism.

[5] = adult parasites, fraction of worms attached, 72 hours of drug treatment, in culture until D5, 50 μM - 10 nM, Suppl. Fig. 9C, read-out: S. mansoni EC50
[6] = adult worms, MEK1 inhibitor, read-out: EC50

T1 sequence (P55072 whole entry): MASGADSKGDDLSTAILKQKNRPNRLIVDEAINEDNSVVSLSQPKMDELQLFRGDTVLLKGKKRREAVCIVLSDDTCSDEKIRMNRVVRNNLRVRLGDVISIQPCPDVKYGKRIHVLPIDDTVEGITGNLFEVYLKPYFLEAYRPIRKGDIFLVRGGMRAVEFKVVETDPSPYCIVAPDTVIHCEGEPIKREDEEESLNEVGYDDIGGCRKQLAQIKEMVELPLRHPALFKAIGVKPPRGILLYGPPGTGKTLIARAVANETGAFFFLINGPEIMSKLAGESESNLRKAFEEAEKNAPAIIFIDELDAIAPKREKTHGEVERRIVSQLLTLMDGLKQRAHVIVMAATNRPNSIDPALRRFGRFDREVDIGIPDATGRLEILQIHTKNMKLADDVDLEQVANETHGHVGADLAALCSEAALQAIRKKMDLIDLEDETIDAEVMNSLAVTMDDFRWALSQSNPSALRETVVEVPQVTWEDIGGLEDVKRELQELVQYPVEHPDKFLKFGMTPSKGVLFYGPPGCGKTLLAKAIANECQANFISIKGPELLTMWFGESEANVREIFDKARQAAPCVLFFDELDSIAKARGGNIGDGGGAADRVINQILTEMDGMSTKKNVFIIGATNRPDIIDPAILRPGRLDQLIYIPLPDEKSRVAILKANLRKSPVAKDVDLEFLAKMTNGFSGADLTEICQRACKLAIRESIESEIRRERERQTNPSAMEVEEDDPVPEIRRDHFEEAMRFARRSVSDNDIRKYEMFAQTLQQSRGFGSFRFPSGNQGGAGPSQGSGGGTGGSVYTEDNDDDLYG
Sequence of S. mansoni p97 (Smp_018240) (G4M0P7 entry or part of it): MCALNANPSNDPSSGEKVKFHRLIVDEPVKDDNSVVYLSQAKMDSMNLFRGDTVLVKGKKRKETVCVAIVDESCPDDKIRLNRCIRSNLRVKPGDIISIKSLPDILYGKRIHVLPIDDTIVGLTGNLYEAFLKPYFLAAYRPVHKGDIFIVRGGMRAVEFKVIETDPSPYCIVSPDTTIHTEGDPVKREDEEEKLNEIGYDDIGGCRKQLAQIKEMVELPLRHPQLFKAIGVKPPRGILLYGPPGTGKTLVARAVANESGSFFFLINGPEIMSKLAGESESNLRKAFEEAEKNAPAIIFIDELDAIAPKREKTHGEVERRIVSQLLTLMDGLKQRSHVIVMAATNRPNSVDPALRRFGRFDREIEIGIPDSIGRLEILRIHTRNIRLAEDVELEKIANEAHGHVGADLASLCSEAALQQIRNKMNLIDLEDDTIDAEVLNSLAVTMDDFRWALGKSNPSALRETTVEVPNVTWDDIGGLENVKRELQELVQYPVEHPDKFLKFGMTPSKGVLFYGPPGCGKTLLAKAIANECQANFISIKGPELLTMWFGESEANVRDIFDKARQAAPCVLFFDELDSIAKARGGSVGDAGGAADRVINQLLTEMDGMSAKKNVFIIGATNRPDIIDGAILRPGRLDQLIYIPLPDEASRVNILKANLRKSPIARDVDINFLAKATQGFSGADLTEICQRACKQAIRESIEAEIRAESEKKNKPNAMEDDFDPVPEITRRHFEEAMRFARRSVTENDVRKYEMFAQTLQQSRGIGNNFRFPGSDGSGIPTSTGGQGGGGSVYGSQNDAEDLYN

Row | Compound | EC50 [1, 5] [nM] | Fold Selectivity [2] | IC50 [2] [nM] | IC50 [3] [nM] | effect on adult worms ([1]; 10 μM) | activity on the enzyme [2] | other results
1 | Cc1ccc(-c2nc3cc(NC(=O)C#Cc4ccncc4)ccc3o2)nc1 [Compound 806, N-(2-(5-methylpyridin-2-yl)benzo[d]oxazol-5-yl)-3-(pyridin-4-yl)propiolamide] | 3200 | 1.1 | 470 ± 170 | 510 ± 160 |  |  | GI50 ([4]; HepG2, 72 h): 1500 nM; IC50 ([4]; HepG2, 72 h): 1800 nM; GI50 ([4]; HepG2, read-out: HepG2 GI50): 1500 nM; IC50 ([4]; HepG2, read-out: HepG2 IC50): 1800 nM
2 | O=C(C#Cc1ccc(Cl)cc1)Nc1ccc2oc(-c3ccccn3)nc2c1 [Compound 736, 3-(4-chlorophenyl)-N-(2-(pyridin-2-yl)benzo[d]oxazol-5-yl)propiolamide] | 12000 | 1.1 | 5900 ± 1300 | 6700 ± 55 | decreased activity on the worms | decreased potency on the enzyme | 
3 | Cc1cccc(-c2nc3cc(NC(=O)C#Cc4ccncc4)ccc3o2)n1 [Compound 807, N-(2-(6-methylpyridin-2-yl)benzo[d]oxazol-5-yl)-3-(pyridin-4-yl)propiolamide] | 1800 | 0.70 | 670 ± 170 | 490 ± 57 |  |  | GI50 ([4]; HepG2, 72 h): 1100 nM; IC50 ([4]; HepG2, 72 h): 1400 nM; GI50 ([4]; HepG2, read-out: HepG2 GI50): 1100 nM; IC50 ([4]; HepG2, read-out: HepG2 IC50): 1400 nM
4 | Cc1ccnc(-c2nc3cc(NC(=O)C#Cc4ccncc4)ccc3o2)c1 [Compound 805, N-(2-(4-methylpyridin-2-yl)benzo[d]oxazol-5-yl)-3-(pyridin-4-yl)propiolamide] | 2000 | 0.80 | 170 ± 92 | 140 ± 78 |  |  | GI50 ([4]; HepG2, 72 h): 1200 nM; IC50 ([4]; HepG2, 72 h): 1600 nM; GI50 ([4]; HepG2, read-out: HepG2 GI50): 1200 nM; IC50 ([4]; HepG2, read-out: HepG2 IC50): 1600 nM
5 | O=C(NOC[C@H](O)CO)c1ccc(F)c(F)c1Nc1ccc(I)cc1F [Mirdametinib, reference compound] |  |  |  |  |  |  | EC50 [1, 6]: > 50000 nM
6 | O=C(C#Cc1cccnc1)Nc1ccc2oc(-c3ccccn3)nc2c1 [Compound 738, N-(2-(pyridin-2-yl)benzo[d]oxazol-5-yl)-3-(pyridin-3-yl)propiolamide] | 3500 | 1.9 | 420 ± 57 | 780 ± 140 | death of the parasites |  | time to detachment of adult worms in culture ([1]; 10 μM): ≤ 24 h
7 | CC(=O)Nc1cccc(-n2c(=O)n(C3CC3)c(=O)c3c(Nc4ccc(I)cc4F)n(C)c(=O)c(C)c32)c1 [Trametinib, reference compound] |  |  |  |  |  |  | EC50 [1, 6]: 650 nM
8 | O=C(N[C@@H](C1CC1)C(F)(F)F)c1cc(-c2cnn3cc(-c4ccc(F)cc4)cnc23)cs1 [ULK-101, reference compound] |  |  |  |  |  |  | time in which inhibitor killed parasites ([1]; initial concentration of 10 μM): ≤ 24 h
9 | Cc1cccnc1-c1nc2cc(NC(=O)C#Cc3ccncc3)ccc2o1 [Compound 804, N-(2-(3-methylpyridin-2-yl)benzo[d]oxazol-5-yl)-3-(pyridin-4-yl)propiolamide] | 760 | 0.70 | 190 ± 63 | 140 ± 62 |  |  | GI50 ([4]; HepG2, 72 h): 930 nM; IC50 ([4]; HepG2, 72 h): 1200 nM; GI50 ([4]; HepG2, read-out: HepG2 GI50): 930 nM; IC50 ([4]; HepG2, read-out: HepG2 IC50): 1200 nM
10 | CN(C)CCc1nnc2cc(-c3ccccc3)c3cc(Cl)ccc3n12 [PF-9366, reference compound] |  |  |  |  |  |  | EC50 [1]: 43000 nM
11 | COc1ccc(C#CC(=O)Nc2ccc3oc(-c4ccccn4)nc3c2)cc1 [Compound 734, 3-(4-methoxyphenyl)-N-(2-(pyridin-2-yl)benzo[d]oxazol-5-yl)propiolamide] | 7000 | 1.7 | 48000 ± 2600 | 83000 ± 6500 | decreased activity on the worms | decreased potency on the enzyme | 
12 | O=C(C#Cc1ccccn1)Nc1ccc2oc(-c3ccccn3)nc2c1 [Compound 737, 3-(pyridin-2-yl)-N-(2-(pyridin-2-yl)benzo[d]oxazol-5-yl)propiolamide] | 22000 | 4.3 | 3000 ± 410 | 13000 ± 2200 | decreased activity on the worms | decreased potency on the enzyme | 
13 | O=C(C#Cc1cccc(Cl)c1)Nc1ccc2oc(-c3ccccn3)nc2c1 [Compound 735, 3-(3-chlorophenyl)-N-(2-(pyridin-2-yl)benzo[d]oxazol-5-yl)propiolamide] | 4200 | 0.70 | 11000 ± 470 | 7300 ± 660 | still active on worms | abolishing activity on the enzyme | 
14 | O=C(C#CC1CC1)Nc1ccc2oc(-c3ccccn3)nc2c1 [Compound 732, 3-cyclopropyl-N-(2-(pyridin-2-yl)benzo[d]oxazol-5-yl)propiolamide] | 1300 |  | > 100000 |  | still active on worms | abolishing activity on the enzyme | 
15 | Nc1nc(=O)n(-c2ccccc2Cl)c2nc(C(F)(F)F)ccc12 [IDE397, reference compound] |  |  |  |  |  |  | EC50 [1]: > 50000 nM
